This note sets out measurements from US10538487B2, “Sulfonylureas and related compounds and use of same” (priority 2015, dated 2020).

Sequence of NLRP3 inflammasome (Q96P20 whole entry): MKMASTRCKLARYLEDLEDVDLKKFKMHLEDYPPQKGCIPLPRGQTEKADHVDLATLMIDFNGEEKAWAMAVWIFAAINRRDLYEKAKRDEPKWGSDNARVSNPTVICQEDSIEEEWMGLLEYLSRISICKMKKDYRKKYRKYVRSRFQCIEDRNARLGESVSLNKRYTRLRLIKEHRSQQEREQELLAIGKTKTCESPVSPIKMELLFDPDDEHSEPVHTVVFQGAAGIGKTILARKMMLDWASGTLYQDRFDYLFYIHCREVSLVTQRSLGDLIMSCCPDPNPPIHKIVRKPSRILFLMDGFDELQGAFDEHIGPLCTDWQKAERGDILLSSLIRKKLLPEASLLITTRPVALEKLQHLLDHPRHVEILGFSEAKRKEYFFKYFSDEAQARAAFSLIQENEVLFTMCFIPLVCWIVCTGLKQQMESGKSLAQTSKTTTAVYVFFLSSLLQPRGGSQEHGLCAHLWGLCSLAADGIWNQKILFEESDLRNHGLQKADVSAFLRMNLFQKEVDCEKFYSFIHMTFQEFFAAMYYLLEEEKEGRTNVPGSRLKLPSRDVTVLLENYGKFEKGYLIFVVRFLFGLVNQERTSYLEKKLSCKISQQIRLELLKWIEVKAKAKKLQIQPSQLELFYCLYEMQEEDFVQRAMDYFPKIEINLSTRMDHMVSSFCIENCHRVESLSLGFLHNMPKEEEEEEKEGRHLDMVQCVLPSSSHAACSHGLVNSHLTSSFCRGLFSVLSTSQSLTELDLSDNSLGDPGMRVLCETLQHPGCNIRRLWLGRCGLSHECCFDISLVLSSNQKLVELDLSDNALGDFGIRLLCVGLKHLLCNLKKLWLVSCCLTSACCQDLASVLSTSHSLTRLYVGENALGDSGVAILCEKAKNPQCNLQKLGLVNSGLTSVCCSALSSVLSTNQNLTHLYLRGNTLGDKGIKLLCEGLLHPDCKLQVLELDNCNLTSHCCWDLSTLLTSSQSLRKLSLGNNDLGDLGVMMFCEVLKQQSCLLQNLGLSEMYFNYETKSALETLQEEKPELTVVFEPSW

The first experiment concerns the target NLRP3 inflammasome (Homo sapiens, UniProt Q96P20). Nature of the experiment: Inhibition of IL-1β release, NLRP3 inflammasome activation assay in HMDM. It is filed as cell-based. Conditions: commercial compounds (Table 9), read-out: HMDM IC50 vs NLRP3. The method, then: The following assays can be used to determine inhibitory activity of test compounds on the NLRP3 inflammasome using common stimuli such as adenosine triphosphate, nigericin, LeuLeu-OMe or monosodium urate crystals (MSU).
To generate HMDM, human monocytes are isolated from buffy coat blood using Ficoll-Plaque Plus (GE Healthcare) and density centrifugation. CD14^+ cell selection is performed using MACS magnetic beads (Miltenyl Biotec).
HMDM are seeded at 1×10^5/ml. […] Medium is removed and replaced with serum free medium (SFM) containing test compound 30 min prior to NLRP3 stimulation. […] ATP can be sourced from Sigma Aldrich, nigericin and MSU from Invivogen and LeuLeu-Ome from Chem-Impex International.
For ELISA and cell death assays cells are seeded in 96 well plates. Supernatants are removed and analysed using ELISA kits according to the manufacturer's instructions (DuoSet® R&D Systems, ReadySetGo!® eBioscience, BD OptEIA™, or Perkin Elmer AlphaLISA®). Cell death is assessed by measurement of LDH release relative to a 100% cell lysis control using the CytoTox96® non-radioactive cytotoxicity assay (Promega).
As for `CCC1=C(C)CN(C(=O)NCCc2ccc(S(=O)(=O)NC(=O)NC3CCC(C)CC3)cc2)C1=O` (stereo not shown) [Glimepiride, reference compound], the IC50 (as a rule, the concentration needed to halve the response being measured) is 92 µM.

The experiment is the same for the next values; noted with them: inhibition of IL-1β release, class symbols, read-out: Avg. IL-1β IC50 HMDM.
Consider `O=C(Nc1c2c(cc3c1CCC3)CCC2)NS(=O)(=O)c1ccn(-c2ccccc2)n1` [N-((1,2,3,5,6,7-hexahydro-s-indacen-4-yl)carbamoyl)-1-phenyl-1H-pyrazole-3-sulfonamide], for which the concentration for half-maximal inhibition (IC50) is less than 1 µM.

Consider `O=C(Nc1c2c(cc3c1CCC3)CCC2)NS(=O)(=O)C1CCOC1` (stereo not shown) [N-((1,2,3,5,6,7-hexahydro-s-indacen-4-yl)carbamoyl)tetrahydrofuran-3-sulfonamide], for which the half-inhibitory concentration (IC50) is less than 10 µM.

Turning to `CN(C)c1cccc2c(S(=O)(=O)NC(=O)Nc3c4c(cc5c3CCC5)CCC4)cccc12` [5-(dimethylamino)-N-((1,2,3,5,6,7-hexahydro-s-indacen-4-yl)carbamoyl)naphthalene-1-sulfonamide], the IC50 is less than 1 µM.

Turning to `C#CCNC(=O)CCc1ccc(S(=O)(=O)NC(=O)Nc2c3c(cc4c2CCC4)CCC3)cc1` [3-(4-(N-((1,2,3,5,6,7-hexahydro-s-indacen-4-yl)carbamoyl)sulfamoyl)phenyl)-N-(prop-2-yn-1-yl)propanamide], the half-inhibitory concentration (IC50) is less than 0.1 µM.

As to `CC(C)c1cc(Cl)cc(C(C)C)c1NC(=O)NS(=O)(=O)c1cc(C(C)(C)O)n(-c2ccccc2)n1` [sodium ((4-chloro-2,6-diisopropylphenyl)carbamoyl)((5-(2-hydroxypropan-2-yl)-1-phenyl-1H-pyrazol-3-yl)sulfonyl)amide], the half-inhibitory concentration (IC50) was less than 0.1 µM.

Consider `Cc1cc(C2CC2)nc(NC(=O)NS(=O)(=O)c2cc(C(C)(C)O)co2)n1` [N-((4-cyclopropyl-6-methylpyrimidin-2-yl)carbamoyl)-4-(2-hydroxypropan-2-yl)furan-2-sulfonamide], for which the concentration for half-maximal inhibition (IC50) is less than 1 µM.

With `O=C(Nc1c2c(cc3c1CCC3)CCC2)NS(=O)(=O)C1CCOCC1` [N-((1,2,3,5,6,7-hexahydro-s-indacen-4-yl)carbamoyl)tetrahydro-2H-pyran-4-sulfonamide], the IC50 is less than 1 µM.

Turning to `CN(CC(=O)NCCc1ccc(S(=O)(=O)NC(=O)Nc2c3c(cc4c2CCC4)CCC3)cc1)c1ccc([N+](=O)[O-])c2nonc12` [N-(4-(N-(1,2,3,5,6,7-Hexahydros-indacen-4-ylcarbamoyl)sulfamoyl)phenethyl)-2-(methyl(7-nitrobenzo[c][1,2,5]oxadiazol-4-yl)amino)acetamide], the IC50 is less than 10 µM.

For `CC(C)(O)c1cccc(S(=O)(=O)NC(=O)Nc2c3c(cc4c2CCC4)CCC3)c1` [N-((1,2,3,5,6,7-hexahydro-s-indacen-4-yl)carbamoyl)-3-(2-hydroxypropan-2-yl)benzenesulfonamide], the half-maximal inhibitory concentration (IC50) is less than 0.1 µM.

For the compound `O=C(Nc1c2c(cc3c1CCC3)CCC2)NS(=O)(=O)C1CCCC1` [N-((1,2,3,5,6,7-hexahydro-s-indacen-4-yl)carbamoyl)cyclopentanesulfonamide], the IC50 is less than 10 µM.

For `CC(C)c1cc(Cl)cc(C(C)C)c1NC(=O)NS(=O)(=O)c1cccc2cccnc12` [N-((4-chloro-2,6-diisopropylphenyl)carbamoyl)quinoline-8-sulfonamide], the half-inhibitory concentration (IC50) is less than 10 µM.

Consider `CC(C)n1nc(S(=O)(=O)NC(=O)Nc2c3c(cc4c2CCC4)CCC3)cc1C(F)(F)F` [N-((1,2,3,5,6,7-hexahydro-s-indacen-4-yl)carbamoyl)-1-isopropyl-5-(trifluoromethyl)-1H-pyrazole-3-sulfonamide], for which the concentration for half-maximal inhibition (IC50) was less than 1 µM.

`[N-]=[N+]=Nc1cccc(S(=O)(=O)NC(=O)Nc2c3c(cc4c2CCC4)CCC3)c1` [3-Azido-N-((1,2,3,5,6,7-hexahydro-s-indacen-4-yl)carbamoyl)benzenesulfonamide]: the IC50 was less than 1 µM.

As for `O=C(Nc1c2c(cc3c1CCC3)CCC2)NS(=O)(=O)C1CCCCC1` [N-((1,2,3,5,6,7-hexahydro-s-indacen-4-yl)carbamoyl)cyclohexanesulfonamide], the half-maximal inhibitory concentration (IC50) is less than 10 µM.

Consider `O=C(Nc1c2c(cc3c1CCC3)CCC2)NS(=O)(=O)N1CCOCC1` [N-((1,2,3,5,6,7-hexahydro-s-indacen-4-yl)carbamoyl)morpholine-4-sulfonamide], for which the IC50 was less than 10 µM.

As to `NCCCn1cc(CCC(=O)Nc2cccc(S(=O)(=O)NC(=O)Nc3c4c(cc5c3CCC5)CCC4)c2)nn1` [3-(1-(3-aminopropyl)-1H-1,2,3-triazol-4-yl)-N-(3-(N-((1,2,3,5,6,7-hexahydro-s-indacen-4-yl)carbamoyl)sulfamoyl)phenyl)propanamide], the IC50 is less than 1 µM.

For `O=C(Nc1c2c(cc3c1CCC3)CCC2)NS(=O)(=O)c1ccn(CCN2CCCCC2)n1` [N-((1,2,3,5,6,7-hexahydro-s-indacen-4-yl)carbamoyl)-1-(2-(piperidin-1-yl)ethyl)-1H-pyrazole-3-sulfonamide], the half-inhibitory concentration (IC50) is less than 10 µM.

For `O=C(Nc1c2c(cc3c1CCC3)CCC2)NS(=O)(=O)c1ccn(C2CC2)n1` [1-cyclopropyl-N-((1,2,3,5,6,7-hexahydro-s-indacen-4-yl)carbamoyl)-1H-pyrazole-3-sulfonamide], the IC50 was less than 0.1 µM.

`CC(C)(O)c1coc(S(=O)(=O)NC(=O)Nc2c3c(cc4c2CCC4O)CCC3)c1` (stereo not shown) [N-((1-hydroxy-1,2,3,5,6,7-hexahydro-s-indacen-4-yl)carbamoyl)-4-(2-hydroxypropan-2-yl)furan-2-sulfonamide]: the IC50 is less than 10 µM.

For the compound `CC(C)c1cccc(C(C)C)c1NC(=O)NS(=O)(=O)c1cc(C(F)(F)F)n(C)n1` [N-((2,6-diisopropylphenyl)carbamoyl)-1-methyl-5-(trifluoromethyl)-1H-pyrazole-3-sulfonamide], the concentration for half-maximal inhibition (IC50) was less than 10 µM.

Turning to `CN(C)S(=O)(=O)NC(=O)Nc1c2c(cc3c1CCC3)CCC2` [N-[1,2,3,5,6,7-hexahydro-s-indacen-4-yl]-N′-[(dimethylamino)sulfonyl]urea], the half-maximal inhibitory concentration (IC50) was less than 10 µM.

With `Cc1cnc(C(=O)NCCc2ccc(S(=O)(=O)NC(=O)Nc3c4c(cc5c3CCC5)CCC4)cc2)cn1` [N-(4-(N-((1,2,3,5,6,7-hexahydro-s-indacen-4-yl)carbamoyl)sulfamoyl)phenethyl)-5-methylpyrazine-2-carboxamide], the half-inhibitory concentration (IC50) is less than 1 µM.

With `O=C(Nc1c2c(cc3c1CCC3)CCC2)NS(=O)(=O)c1ccn(C(F)(F)F)n1` [N-((1,2,3,5,6,7-hexahydro-s-indacen-4-yl)carbamoyl)-1-(trifluoromethyl)-1H-pyrazole-3-sulfonamide], the IC50 is less than 0.1 µM.

On to `COc1cc(NC(=O)NS(=O)(=O)c2cc(C(C)(C)O)co2)c2ncccc2c1` [4-(2-hydroxypropan-2-yl)-N-((6-methoxyquinolin-8-yl)carbamoyl)furan-2-sulfonamide], for which the concentration for half-maximal inhibition (IC50) is less than 10 µM.

On to `O=C(Nc1c2c(cc3c1CCC3)CCC2)NS(=O)(=O)c1cccc2cccnc12` [N-((1,2,3,5,6,7-hexahydro-s-indacen-4-yl)carbamoyl)quinoline-8-sulfonamide], for which the IC50 is less than 1 µM.

Regarding `CC(C)c1cc(Cl)cc(C(C)C)c1NC(=O)NS(=O)(=O)c1cccc2cnccc12` [N-((4-chloro-2,6-diisopropylphenyl)carbamoyl)isoquinoline-5-sulfonamide], the IC50 is less than 1 µM.

In the case of `CC(C)(C)c1cc(C(C)(C)C)nc(NC(=O)NS(=O)(=O)c2cc(C(C)(C)O)co2)n1` [N-((4,6-di-tert-butylpyrimidin-2-yl)carbamoyl)-4-(2-hydroxypropan-2-yl)furan-2-sulfonamide], the half-maximal inhibitory concentration (IC50) was less than 50 µM.
